# Laboratory results reported in ChEMBL document CHEMBL3112452, “Neutral β-Lactams Inactivate High Molecular Mass Penicillin-Binding Proteins of Class B1, Including PBP2a of MRSA” (ACS Med Chem Lett, 2014).
# Key:
# [1] = Inhibition of Staphylococcus aureus PBP2a
# Bacillus subtilis = experiment: Antimicrobial activity against wild type Bacillus subtilis 168 after 18 hrs by serial dilution method; assay type: functional; settings: subsp. subtilis str. 168, 18 h
# [2] = Inhibition of Escherichia coli BL21(DE3) PBP2 after 30 mins by SDS-PAGE
# [3] = biological target: T1, Penicillin-binding protein 3 (Bacillus subtilis (strain 168), UniProt P42971); experiment: Inhibition of Bacillus subtilis 168 PBP3 after 30 mins by SDS-PAGE; design: species or system Bacillus subtilis subsp. subtilis str. 168
# T1 sequence (P42971 whole entry): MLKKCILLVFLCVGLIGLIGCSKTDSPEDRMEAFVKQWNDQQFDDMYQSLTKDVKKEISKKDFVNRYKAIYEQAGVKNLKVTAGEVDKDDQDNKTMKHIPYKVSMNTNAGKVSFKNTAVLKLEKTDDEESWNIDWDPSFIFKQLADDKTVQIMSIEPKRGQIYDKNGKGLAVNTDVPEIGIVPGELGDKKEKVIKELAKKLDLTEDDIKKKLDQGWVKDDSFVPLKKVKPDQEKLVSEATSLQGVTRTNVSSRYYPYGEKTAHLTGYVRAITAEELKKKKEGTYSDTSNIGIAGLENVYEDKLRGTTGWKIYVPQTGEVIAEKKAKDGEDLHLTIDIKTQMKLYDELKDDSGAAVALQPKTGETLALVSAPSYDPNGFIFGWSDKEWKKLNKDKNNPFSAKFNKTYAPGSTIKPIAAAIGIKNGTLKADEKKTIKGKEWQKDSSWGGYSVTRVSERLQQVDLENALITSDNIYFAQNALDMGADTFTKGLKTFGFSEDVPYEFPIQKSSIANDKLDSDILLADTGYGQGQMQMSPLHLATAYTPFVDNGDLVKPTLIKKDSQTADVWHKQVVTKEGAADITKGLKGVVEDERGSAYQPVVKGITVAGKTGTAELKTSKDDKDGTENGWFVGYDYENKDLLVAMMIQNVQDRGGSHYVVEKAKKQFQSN
# [4] = Inhibition of Escherichia coli PBP5/6 after 30 mins by SDS-PAGE
# Bacillus licheniformis = experiment: Antimicrobial activity against Bacillus licheniformis NRS 1264 after 18 hrs by serial dilution method; assay type: functional; settings: NRS 1264, 18 h
# [5] = Inhibition of Bacillus subtilis 168 PBP1 after 30 mins by SDS-PAGE; design: species or system Bacillus subtilis subsp. subtilis str. 168
# Escherichia coli = experiment: Antimicrobial activity against wild type Escherichia coli MM 294 after 18 hrs by serial dilution method; assay type: functional; settings: MM 294, 18 h
# [6] = biological target: T2, Penicillin-binding protein 4 (Bacillus subtilis (strain 168), UniProt P40750); experiment: Inhibition of Bacillus subtilis 168 PBP4 after 30 mins by SDS-PAGE; design: species or system Bacillus subtilis subsp. subtilis str. 168
# T2 sequence (P40750 whole entry): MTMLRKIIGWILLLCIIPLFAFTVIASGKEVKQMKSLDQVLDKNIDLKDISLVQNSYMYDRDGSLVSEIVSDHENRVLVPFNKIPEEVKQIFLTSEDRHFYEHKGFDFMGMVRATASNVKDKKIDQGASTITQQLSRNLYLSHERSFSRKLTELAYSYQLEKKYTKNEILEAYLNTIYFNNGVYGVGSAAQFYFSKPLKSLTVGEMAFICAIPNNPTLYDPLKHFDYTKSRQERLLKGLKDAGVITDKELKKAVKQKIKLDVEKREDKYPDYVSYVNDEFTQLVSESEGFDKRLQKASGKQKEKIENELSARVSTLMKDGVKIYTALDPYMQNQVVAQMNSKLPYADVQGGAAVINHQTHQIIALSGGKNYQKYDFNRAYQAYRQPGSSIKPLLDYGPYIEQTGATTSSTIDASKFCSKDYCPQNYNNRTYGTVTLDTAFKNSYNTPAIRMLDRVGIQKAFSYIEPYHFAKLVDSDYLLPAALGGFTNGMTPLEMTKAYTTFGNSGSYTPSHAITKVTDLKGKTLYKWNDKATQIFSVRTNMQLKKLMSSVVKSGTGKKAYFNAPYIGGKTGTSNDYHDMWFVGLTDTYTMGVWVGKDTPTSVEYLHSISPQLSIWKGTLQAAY
# [7] = Inhibition of Escherichia coli PBP1a/1b after 30 mins by SDS-PAGE
# [8] = system: Staphylococcus epidermidis; experiment: Antimicrobial activity against wild type Staphylococcus epidermidis ATCC 12228 after 18 hrs by serial dilution method; assay type: functional; settings: ATCC 12228, 18 h
# [9] = biological target: T3, D-alanyl-D-alanine carboxypeptidase DacA (Bacillus subtilis (strain 168), UniProt P08750); experiment: Inhibition of Bacillus subtilis 168 PBP5 after 30 mins by SDS-PAGE; design: species or system Bacillus subtilis subsp. subtilis str. 168
# T3 sequence (P08750 whole entry): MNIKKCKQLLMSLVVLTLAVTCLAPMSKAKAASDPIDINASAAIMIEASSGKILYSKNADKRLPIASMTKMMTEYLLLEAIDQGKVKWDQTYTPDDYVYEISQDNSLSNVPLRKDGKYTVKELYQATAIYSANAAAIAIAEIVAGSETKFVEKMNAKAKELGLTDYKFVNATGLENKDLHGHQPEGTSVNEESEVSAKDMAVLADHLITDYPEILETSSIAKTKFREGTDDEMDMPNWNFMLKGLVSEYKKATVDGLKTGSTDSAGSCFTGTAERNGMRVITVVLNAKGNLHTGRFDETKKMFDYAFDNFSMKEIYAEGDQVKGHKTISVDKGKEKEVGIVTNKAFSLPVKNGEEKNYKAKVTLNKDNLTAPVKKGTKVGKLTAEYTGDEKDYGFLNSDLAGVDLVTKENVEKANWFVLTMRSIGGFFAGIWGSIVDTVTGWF
# [10] = Inhibition of Bacillus subtilis 168 PBP2 after 30 mins by SDS-PAGE; design: species or system Bacillus subtilis subsp. subtilis str. 168
# [11] = Inhibition of Escherichia coli PBP3 after 30 mins by SDS-PAGE
# [12] = Inhibition of Escherichia coli PBP4 after 30 mins by SDS-PAGE
SMILES,Second-order inactivation rate constant (kinact/Ki) [1],MIC (Bacillus subtilis),Ki [2],Ki [3],Ki [4],MIC (Bacillus licheniformis),Ki [5],MIC (Escherichia coli),Ki [6],Ki [7],MIC [8],Ki [9],Ki [10],Ki [11],Ki [12],kinact/Ki [5],kinact/Ki [10]
CC1=CN2C(=O)[C@@H](NC(=O)[C@H](N)c3ccccc3)[C@H]2SC1,0.34 M⁻¹ s⁻¹,–,–,–,–,–,–,–,–,–,–,–,–,–,–,–,–
CC(=O)OCC1=C(C(N)=O)N2C(=O)[C@@H](NC(=O)Cc3cccs3)[C@H]2SC1,1.3 M⁻¹ s⁻¹,–,–,–,–,–,–,–,–,–,–,–,–,–,–,–,–
COC(=O)[C@@H]1N2C(=O)[C@@H](NC(=O)COc3ccccc3)[C@H]2SC1(C)C,1.5 M⁻¹ s⁻¹,25 µM,–,–,–,–,–,–,–,–,–,–,–,–,–,–,–
CC1(C)S[C@@H]2[C@H](NC(=O)COc3ccccc3)C(=O)N2[C@H]1C(N)=O,2 M⁻¹ s⁻¹,2.3 µM,1.5 M⁻¹ s⁻¹,5.3 M⁻¹ s⁻¹,0.6 M⁻¹ s⁻¹,1.5 µM,340 M⁻¹ s⁻¹,10000 µM,190 M⁻¹ s⁻¹,0.74 M⁻¹ s⁻¹,95 µM,17 M⁻¹ s⁻¹,440 M⁻¹ s⁻¹,18 M⁻¹ s⁻¹,30 M⁻¹ s⁻¹,–,–
CC1(C)S[C@@H]2[C@H](NC(=O)COc3ccccc3)C(=O)N2[C@H]1C(=O)O [PENICILLIN V],–,1400 µM,128 M⁻¹ s⁻¹,28 M⁻¹ s⁻¹,96 M⁻¹ s⁻¹,1500 µM,–,750 µM,–,184 M⁻¹ s⁻¹,370 µM,620 M⁻¹ s⁻¹,–,420 M⁻¹ s⁻¹,3200 M⁻¹ s⁻¹,110000 M⁻¹ s⁻¹,19000 M⁻¹ s⁻¹
